This assay can be described thus: Cytotoxicity against mouse 9PS cells. Type of assay: functional. The note with it: read-out: ED50 (the source's name).

Values after ≈ are worked out from the molar mass of the structure shown.

Consider `Cc1cc(=O)c2c(O)c3c(c(CC(O)C(C)(C)O)c2o1)OC(C)(C)C=C3` (stereo not drawn) [SPATHELIABISCHROMEN], for which the EC50 was determined as 3 µg/mL (≈ 8.32 µM). As for `COc1c(/C=C/C(C)(C)O)c2c(c3oc(C)cc(=O)c13)C=CC(C)(C)O2`, the EC50 was found to be 0.3 µg/mL (≈ 0.842 µM). `Cc1cc(=O)c2c(O)c3c(c(C(O)C(O)C(C)(C)O)c2o1)OC(C)(C)C=C3` (stereo not drawn): the EC50 was 0.5 µg/mL (≈ 1.33 µM).

(Values after ChEMBL document CHEMBL1150706, “Novel chromones from Spathelia sorbifolia” (1987).)
